Patent US5045549A, “Substituted 4-pyridone 3-carboxylic acid derivatives, method for their production and their pharmaceutical compositions” (priority 1986, dated 1991)
Values after ≈ are worked out from the molar mass of the structure shown. Read-outs that look alike come from different tables or passages of the source.

Assays:
Experiment in all cases: MIC agar dilution assay (Table III)
Format in all cases: cell-based
PSEU AERUG = conditions: 18 h, read-out: MINIMAL INHIBITORY CONC.
Protocol: (§1) The results are summarized in Table III. |TEST: 406 METHOD: […] |MEDIUM: […] |INCUBATION: 18 Hrs. 35 Celsius | Aerobic: T

STREP FAEC = conditions: 18 h, read-out: MINIMAL INHIBITORY CONC.
Protocol: as §1

CITRO DIV = conditions: 18 CITRO DIV K 82 24; 18 Hrs, 35 Celsius; read-out: MINIMAL INHIBITORY CONC.
Protocol: as §1

ESCH COLI = conditions: 18 h, read-out: MINIMAL INHIBITORY CONC.
Protocol: as §1

PROV STUA = conditions: 17 PROV STUA CMC 83 3; 18 Hrs, 35 Celsius; read-out: MINIMAL INHIBITORY CONC.
Protocol: as §1

ENTERO CLO = conditions: 18 h, read-out: MINIMAL INHIBITORY CONC.
Protocol: (§2) TEST: 406 METHOD: AGAR DIL
(§3) MEDIUM: MUEL-HIN INOCULUM: 1.OE+04 - 5.OE+04
(§4) INCUBATION: 18 Hrs. 35 Celsius

STAPH AUR = conditions: 18 h, read-out: MINIMAL INHIBITORY CONC.
Protocol: as §2, §3, §4

PROT RETT = conditions: 16 PROT RETT IO 83 21; 18 Hrs, 35 Celsius; read-out: MINIMAL INHIBITORY CONC.
Protocol: as §2, §3, §4

SERRAT MARC = conditions: 18 h, read-out: MINIMAL INHIBITORY CONC.
Protocol: as §2, §3, §4

KLEB PNEUM = conditions: 18 h, read-out: MINIMAL INHIBITORY CONC.
Protocol: as §2, §3, §4

MORG MORG = conditions: 18 h, read-out: MINIMAL INHIBITORY CONC.
Protocol: as §2, §3, §4

[1] = 19 PSEU AERUG K 84 16, 35 Celsius
[2] = 20 PSEU AERUG VGH 84 3, 35 Celsius
[3] = 21 PSEU AERUG CMC 83 20, 35 Celsius
[4] = 25 STREP FAEC UCI 85 30, 35 Celsius
[5] = 26 STREP FAEC VGH 84 69, 35 Celsius
[6] = 27 STREP FAEC CMC 83 120, 35 Celsius
[7] = 1 ESCH COLI MOR 84 20, 35 Celsius
[8] = 2 ESCH COLI VGH 84 19, 35 Celsius
[9] = 3 ESCH COLI CMC 84 50, 35 Celsius
[10] = 28 ESCH COLI ATCC 25922, 35 Celsius
[11] = 7 ENTERO CLO VGH 84 39, 35 Celsius
[12] = 8 ENTERO CLO K 84 10, 35 Celsius
[13] = 9 ENTERO CLO MOR 84 30, 35 Celsius
[14] = 22 STAPH AUR VGH 84 47, 35 Celsius
[15] = 23 STAPH AUR K 82 26, 35 Celsius
[16] = 24 STAPH AUR CMC 83 131, 35 Celsius
[17] = 29 STAPH AUR ATCC 29213, 35 Celsius
[18] = 10 SERRAT MARC MOR 84 41, 35 Celsius
[19] = 11 SERRAT MARC CMC 83 74, 35 Celsius
[20] = 12 SERRAT MARC IO 83 63, 35 Celsius
[21] = 4 KLEB PNEUM CMC 84 31, 35 Celsius
[22] = 5 KLEB PNEUM MOR 84 24, 35 Celsius
[23] = 6 KLEB PNEUM IO 83 5, 35 Celsius
[24] = 13 MORG MORG VGH 84 12, 35 Celsius
[25] = 14 MORG MORG CMC 84 38, 35 Celsius
[26] = 15 MORG MORG MOR 84 45, 35 Celsius

MIC (PSEU AERUG; [1]) [µg/mL]	MIC (PSEU AERUG; [2]) [µg/mL]	MIC (PSEU AERUG; [3]) [µg/mL]	MIC (STREP FAEC; [4]) [µg/mL]	MIC (STREP FAEC; [5]) [µg/mL]	MIC (STREP FAEC; [6]) [µg/mL]	MIC (CITRO DIV) [µg/mL]	MIC (ESCH COLI; [7]) [µg/mL]	MIC (ESCH COLI; [8]) [µg/mL]	MIC (ESCH COLI; [9]) [µg/mL]	MIC (ESCH COLI; [10]) [µg/mL]	MIC (PROV STUA) [µg/mL]	MIC (ENTERO CLO; [11]) [µg/mL]	MIC (ENTERO CLO; [12]) [µg/mL]	MIC (ENTERO CLO; [13]) [µg/mL]	MIC (STAPH AUR; [14]) [µg/mL]	MIC (STAPH AUR; [15]) [µg/mL]	MIC (STAPH AUR; [16]) [µg/mL]	MIC (STAPH AUR; [17]) [µg/mL]	MIC (PROT RETT) [µg/mL]	SMILES	other results
0.5 (≈ 1.2 µM)	1 (≈ 2.41 µM)	0.25 (≈ 0.602 µM)	0.5 (≈ 1.2 µM)	0.5 (≈ 1.2 µM)	0.5 (≈ 1.2 µM)	0.008 (≈ 0.0193 µM)	0.008 (≈ 0.0193 µM)	0.008 (≈ 0.0193 µM)	0.03 (≈ 0.0722 µM)	0.008 (≈ 0.0193 µM)	2 (≈ 4.81 µM)	0.03 (≈ 0.0722 µM)	0.015 (≈ 0.0361 µM)	0.03 (≈ 0.0722 µM)	0.25 (≈ 0.602 µM)	0.12 (≈ 0.289 µM)	0.25 (≈ 0.602 µM)	0.25 (≈ 0.602 µM)	0.03 (≈ 0.0722 µM)	O=C(O)c1cn(-c2ccc(F)cc2F)c2cc(N3CC4CC3CN4)c(F)cc2c1=O (stereo not shown) [Example 11, 7-(2,5-diazabicyclo(2.2.1)hept-2-yl)-6-fluoro-1-(2,4-difluorophenyl)-1,4-dihydro-4-oxoquinoline3-carboxylic acid]	MIC (SERRAT MARC; [18]): 0.06 µg/mL (≈ 0.144 µM); MIC (SERRAT MARC; [19]): 4 µg/mL (≈ 9.63 µM); MIC (SERRAT MARC; [20]): 0.25 µg/mL (≈ 0.602 µM); MIC (KLEB PNEUM; [21]): 0.03 µg/mL (≈ 0.0722 µM); MIC (KLEB PNEUM; [22]): 0.06 µg/mL (≈ 0.144 µM); MIC (KLEB PNEUM; [23]): 0.06 µg/mL (≈ 0.144 µM); MIC (MORG MORG; [24]): 0.06 µg/mL (≈ 0.144 µM); MIC (MORG MORG; [25]): 0.12 µg/mL (≈ 0.289 µM); MIC (MORG MORG; [26]): 0.03 µg/mL (≈ 0.0722 µM)
1 (≈ 2.33 µM)	4 (≈ 9.32 µM)	0.5 (≈ 1.16 µM)	0.5 (≈ 1.16 µM)	0.5 (≈ 1.16 µM)	0.5 (≈ 1.16 µM)	0.03 (≈ 0.0699 µM)	0.015 (≈ 0.0349 µM)	0.015 (≈ 0.0349 µM)	0.06 (≈ 0.14 µM)	0.03 (≈ 0.0699 µM)	4 (≈ 9.32 µM)	0.06 (≈ 0.14 µM)	0.03 (≈ 0.0699 µM)	0.06 (≈ 0.14 µM)	0.03 (≈ 0.0699 µM)	0.015 (≈ 0.0349 µM)	0.5 (≈ 1.16 µM)	0.03 (≈ 0.0699 µM)	0.06 (≈ 0.14 µM)	CN1CC2CC1CN2c1cc2c(cc1F)c(=O)c(C(=O)O)cn2-c1ccc(F)cc1F (stereo not shown) [Example 9, 6-Fluoro-1-(2,4-difluorophenyl)-1,4-dihydro7-(5-methyl-2,5-diazabicyclo(2.2.1)hept-2-yl)-4-oxoquinoline-3-carboxylic acid]	MIC (SERRAT MARC; [18]): 0.12 µg/mL (≈ 0.279 µM); MIC (SERRAT MARC; [19]): 4 µg/mL (≈ 9.32 µM); MIC (SERRAT MARC; [20]): 0.5 µg/mL (≈ 1.16 µM); MIC (KLEB PNEUM; [21]): 0.06 µg/mL (≈ 0.14 µM); MIC (KLEB PNEUM; [22]): 0.06 µg/mL (≈ 0.14 µM); MIC (KLEB PNEUM; [23]): 0.12 µg/mL (≈ 0.279 µM); MIC (MORG MORG; [24]): 0.25 µg/mL (≈ 0.582 µM); MIC (MORG MORG; [25]): 0.25 µg/mL (≈ 0.582 µM); MIC (MORG MORG; [26]): 0.12 µg/mL (≈ 0.279 µM)
